Laboratory results: PubChem BioAssay (NCI)
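Following 48 hours of exposure in 96-well plates, responses at five concentrations were used to interpolate endpoints linearly. TGI: concentration producing complete growth inhibition.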

Experiments:
Assay in all cases: inhibition of tumour cell growth, NCI panel, 48 h
[1] = tested on: BT-549 breast
[2] = tested on: HOP-92 NSCLC
[3] = tested on: IGROV1 ovarian
[4] = tested on: M14 melanoma
[5] = tested on: MCF7 breast
[6] = tested on: MDA-MB-231 breast
[7] = tested on: NCI-H226 lung
[8] = tested on: NCI-H460 lung
[9] = tested on: NCI/ADR-RES ovarian
[10] = tested on: OVCAR-3 ovarian
[11] = tested on: OVCAR-4 ovarian
[12] = tested on: OVCAR-8 ovarian
[13] = tested on: SK-MEL-2 melanoma
[14] = tested on: SK-OV-3 ovarian
[15] = tested on: SN12C renal
[16] = tested on: SR leukemia
[17] = tested on: SW-620 colon
[18] = tested on: UACC-62 melanoma
[19] = tested on: RPMI-8226 leukemia
[20] = tested on: HL-60(TB) leukemia

O=C1C=Cc2c(I)sc(I)c21
TGI [1]: 41.5 µM | TGI [2]: 33 µM | TGI [3]: 31 µM | TGI [4]: 75.8 µM | TGI [5]: 52.1 µM | TGI [6]: 68.8 µM | TGI [7]: > 100 µM | TGI [8]: > 100 µM | TGI [9]: 67.7 µM | TGI [10]: 39.7 µM | TGI [11]: 52.6 µM | TGI [12]: 42.3 µM | TGI [13]: 64.4 µM | TGI [14]: > 100 µM | TGI [15]: 45.7 µM | TGI [16]: 27 µM | TGI [17]: 38.1 µM | TGI [18]: > 100 µM

COc1ccc2nc(-c3ccc(O)cc3)cn2c1
TGI [1]: > 100 µM | TGI [2]: > 100 µM | TGI [3]: > 100 µM | TGI [4]: > 100 µM | TGI [5]: > 100 µM | TGI [6]: > 100 µM | TGI [7]: > 100 µM | TGI [8]: > 100 µM | TGI [9]: > 100 µM | TGI [10]: > 100 µM | TGI [11]: > 100 µM | TGI [12]: > 100 µM | TGI [19]: > 100 µM | TGI [13]: > 100 µM | TGI [14]: > 100 µM | TGI [15]: > 100 µM | TGI [16]: > 100 µM | TGI [17]: > 100 µM | TGI [18]: 86.2 µM

CC[C@@H]1C[C@@H](O)[C@@H]2[C@H](O)[C@H](O)CN2C1
TGI [1]: > 100 µM | TGI [20]: > 100 µM | TGI [2]: > 100 µM | TGI [3]: > 100 µM | TGI [4]: > 100 µM | TGI [5]: > 100 µM | TGI [6]: > 100 µM | TGI [7]: > 100 µM | TGI [8]: > 100 µM | TGI [9]: > 100 µM | TGI [10]: > 100 µM | TGI [11]: > 100 µM | TGI [12]: > 100 µM | TGI [19]: > 100 µM | TGI [13]: > 100 µM | TGI [14]: > 100 µM | TGI [15]: > 100 µM | TGI [17]: > 100 µM | TGI [18]: > 100 µM

Cc1c(C)c2ccc(O)cc2[nH]c1=O
TGI [1]: > 100 µM | TGI [2]: > 100 µM | TGI [3]: > 100 µM | TGI [4]: > 100 µM | TGI [5]: > 100 µM | TGI [6]: > 100 µM | TGI [7]: > 100 µM | TGI [8]: > 100 µM | TGI [9]: > 100 µM | TGI [10]: > 100 µM | TGI [11]: > 100 µM | TGI [12]: > 100 µM | TGI [19]: > 100 µM | TGI [13]: > 100 µM | TGI [15]: > 100 µM | TGI [16]: > 100 µM | TGI [17]: > 100 µM | TGI [18]: > 100 µM

N=c1c2ccccc2nc2oc3ccc(Cl)cc3n12
TGI [1]: > 100 µM | TGI [3]: 69.8 µM | TGI [4]: 56.9 µM | TGI [6]: > 100 µM | TGI [7]: 34.6 µM | TGI [8]: > 100 µM | TGI [9]: > 100 µM | TGI [10]: 31.4 µM | TGI [11]: 13.1 µM | TGI [12]: 69.1 µM | TGI [19]: 23.5 µM | TGI [13]: 51.3 µM | TGI [14]: 46.2 µM | TGI [15]: 61.5 µM | TGI [16]: > 100 µM | TGI [17]: > 100 µM | TGI [18]: > 100 µM

Cc1ccc(OCCn2cc(Nc3ccccc3)c(=O)[nH]c2=O)cc1
TGI [1]: > 100 µM | TGI [2]: > 100 µM | TGI [3]: > 100 µM | TGI [4]: > 100 µM | TGI [5]: > 100 µM | TGI [6]: > 100 µM | TGI [7]: > 100 µM | TGI [8]: > 100 µM | TGI [9]: > 100 µM | TGI [10]: > 100 µM | TGI [11]: > 100 µM | TGI [12]: > 100 µM | TGI [19]: > 100 µM | TGI [13]: > 100 µM | TGI [15]: > 100 µM | TGI [16]: > 100 µM | TGI [17]: > 100 µM | TGI [18]: > 100 µM

CC1(C)OC([C@H](O)CO)C([C@H]2NCCS2)O1 (stereo partly specified)
TGI [1]: > 100 µM | TGI [20]: > 100 µM | TGI [2]: > 100 µM | TGI [3]: > 100 µM | TGI [4]: > 100 µM | TGI [6]: > 100 µM | TGI [7]: > 100 µM | TGI [8]: > 100 µM | TGI [9]: > 100 µM | TGI [10]: > 100 µM | TGI [11]: > 100 µM | TGI [12]: > 100 µM | TGI [19]: > 100 µM | TGI [13]: > 100 µM | TGI [14]: > 100 µM | TGI [16]: > 100 µM | TGI [17]: > 100 µM | TGI [18]: > 100 µM

COc1ccc(C2C3=C(CCCC3=O)N(c3ccccc3)C3=C2C(=O)CCC3)cc1
TGI [1]: > 100 µM | TGI [20]: > 100 µM | TGI [2]: > 100 µM | TGI [3]: > 100 µM | TGI [4]: > 100 µM | TGI [5]: > 100 µM | TGI [7]: > 100 µM | TGI [8]: > 100 µM | TGI [9]: > 100 µM | TGI [10]: > 100 µM | TGI [11]: > 100 µM | TGI [19]: > 100 µM | TGI [14]: > 100 µM | TGI [15]: > 100 µM | TGI [16]: > 100 µM | TGI [17]: > 100 µM | TGI [18]: > 100 µM

CC(=O)O[C@H]1C(=O)[C@@]2(C)[C@H]([C@H](OC(=O)c3ccncc3)[C@]3(O)C[C@H](OC(=O)[C@H](O)[C@@H](NC(=O)c4ccccc4)c4ccccc4)C(C)=C1C3(C)C)[C@]1(OC(C)=O)CO[C@@H]1C[C@@H]2O
TGI [1]: > 25 µM | TGI [20]: 1.63 µM | TGI [3]: > 25 µM | TGI [4]: > 25 µM | TGI [5]: > 25 µM | TGI [6]: > 25 µM | TGI [7]: > 25 µM | TGI [8]: > 25 µM | TGI [9]: > 25 µM | TGI [10]: > 18.5 µM | TGI [11]: > 25 µM | TGI [12]: > 25 µM | TGI [19]: 6.5 µM | TGI [13]: > 25 µM | TGI [14]: > 25 µM | TGI [15]: > 25 µM | TGI [16]: > 25 µM | TGI [17]: > 25 µM | TGI [18]: > 25 µM

Cn1c(=O)c2c(nc3sc4ncccc4c(=O)n32)n(C)c1=O
TGI [1]: > 100 µM | TGI [20]: > 100 µM | TGI [2]: > 100 µM | TGI [3]: > 100 µM | TGI [4]: > 100 µM | TGI [5]: > 100 µM | TGI [6]: > 100 µM | TGI [7]: > 100 µM | TGI [8]: > 100 µM | TGI [9]: > 100 µM | TGI [10]: > 100 µM | TGI [11]: > 100 µM | TGI [12]: > 100 µM | TGI [19]: > 100 µM | TGI [13]: > 100 µM | TGI [14]: > 100 µM | TGI [15]: > 100 µM | TGI [17]: > 100 µM | TGI [18]: > 100 µM

CCCCC/C(=N\c1nc[nH]c1C(N)=O)OCC
TGI [1]: > 100 µM | TGI [20]: > 100 µM | TGI [3]: > 100 µM | TGI [4]: > 100 µM | TGI [5]: > 100 µM | TGI [6]: > 100 µM | TGI [7]: > 100 µM | TGI [8]: > 100 µM | TGI [9]: > 100 µM | TGI [10]: > 100 µM | TGI [11]: > 100 µM | TGI [12]: > 100 µM | TGI [19]: > 100 µM | TGI [13]: > 100 µM | TGI [14]: > 100 µM | TGI [15]: > 100 µM | TGI [16]: > 100 µM | TGI [17]: > 100 µM | TGI [18]: > 100 µM

O=C1CCC2(c3ccc(F)cc3)Nc3ncncc3N12 (stereo unspecified)
TGI [1]: > 10 µM | TGI [2]: > 10 µM | TGI [3]: > 10 µM | TGI [4]: > 10 µM | TGI [5]: > 10 µM | TGI [7]: > 10 µM | TGI [8]: > 10 µM | TGI [9]: > 10 µM | TGI [10]: > 10 µM | TGI [11]: > 10 µM | TGI [12]: > 10 µM | TGI [13]: > 10 µM | TGI [15]: > 10 µM | TGI [16]: > 10 µM | TGI [17]: > 10 µM | TGI [18]: > 10 µM

O=C1C(c2c(O)[nH]c3ccc(S(=O)(=O)N(CCO)CCO)cc23)=Nc2ccccc21
TGI [1]: > 100 µM | TGI [2]: > 100 µM | TGI [3]: > 100 µM | TGI [4]: > 100 µM | TGI [5]: > 100 µM | TGI [6]: > 100 µM | TGI [7]: > 100 µM | TGI [8]: > 100 µM | TGI [9]: > 100 µM | TGI [10]: > 100 µM | TGI [11]: > 100 µM | TGI [12]: > 100 µM | TGI [19]: > 100 µM | TGI [13]: > 100 µM | TGI [14]: > 100 µM | TGI [15]: > 100 µM | TGI [16]: > 100 µM | TGI [17]: > 100 µM | TGI [18]: > 100 µM
